Earlier results, collected in patent US11434243B2, “Triazoloquinazolinone synthesis” (priority 2017, dated 2022).

What was measured:
[1] = qualitative; complicates purification
[2] = system: benzodiazepine site of the GABAA receptor complex

Cc1ccc(-n2nc3c4cc(Cc5ccccc5)ccc4[nH]c(=O)n3c2=O)cc1 [Compound 12, 9-benzyl-2-(4-methylphenyl)-2,6-dihydro[1,2,4]triazolo[4,3-c]quinazoline-3,5-dione]
solubility [1]: low solubility
potency relative to diazepam in displacing 3H-Flumazenil ([2]; fold more potent than diazepam): 10 times
inhibition of the binding of 3H-Flumazenil to the benzodiazepine site of the GABAA receptor complex ([2]; rat membrane preparations, result in words): very potent inhibitor
selectivity for the GABAA receptor complex ([2]; result in words): selective for the GABAA receptor complex
